{
  "source": "patent US8071548B2",
  "about": "“Method of reducing injury to mammalian cells” (Nono, Inc., priority 2002, dated 2011)",
  "key": {"nNOS": {"tested_on": "nNOS", "assay": "NMDA-evoked cGMP formation (surrogate of NO production by nNOS)", "assay_type": "cell-based, mouse", "details": "50 nM, pre-treated 1 h, NMDA 0-1000 μM", "experimental": "cGMP determinations were performed 10 min after challenging the cultures with NMDA, kainate, or high-K (FIGS. 4c-e) with the Biotrak cGMP enzyme immunoassay system according to the kit manufacturer's instructions (Amersham). Staining for NADPH diaphorase (FIG. 4b) was done as described in ref 12."}, "[1]": {"tested_on": "transient middle cerebral artery occlusion", "assay": "Transient MCAO, pre-treatment study", "assay_type": "in vivo, Sprague-Dawley rats", "experimental": "(§1) Next, I examined whether pretreatment with Tat-peptides would reduce stroke damage. Experiments were carried out in adult male Sprague-Dawley rats subjected to transient middle cerebral artery occlusion (MCAO) for 90 minutes by the intraluminal suture method (36,37). Animals were fasted overnight and injected with atropine sulfate (0.5 mg/kg IP). After 10 minutes anesthesia was induced with 3.5% halothane in a mixture of nitrous oxide and oxygen (Vol. 2:1) and maintained with 0.8% halothane. Rats were orally intubated, mechanically ventilated, and paralyzed with pancuronium bromide (0.6 mg/kg IV). Body temperature was maintained at 36.5-37.5° C. with a heating lamp. Polyethylene catheters in the femoral artery and vein were used to continuously record blood pressure and to sample blood for gas and pH measurements. […] This produces an extensive infarction encompassing the cerebral cortex and basal ganglia. […] Physiological parameters (body temperature, blood pressure, blood gases) were monitored and maintained throughout the experiment (Table 1). All experimental manipulations and analyses of data were performed by individuals blinded to the treatment groups. The extent of cerebral infarction was measured 24 h after MCAO onset (FIG. 7C inset). The postural reflex test (38), and the forelimb placing test (39) were used to grade neurological function on a scale of 0 to 12 (normal=0; worst=12) during MCAO (at 50 minutes) and 24 h thereafter."}, "[2]": {"assay": "Physiological variables in pre-treatment MCAO study", "assay_type": "in vivo, Sprague-Dawley rats", "experimental": "as §1"}, "[3]": {"assay": "Physiological variables in post-treatment MCAO study", "assay_type": "in vivo, Sprague-Dawley rats", "experimental": "Next, I examined whether treatment with Tat-NR2B9c could attenuate ischemic neuronal damage in-vivo when given after stroke onset. […] Infarction volume and neurological outcome measurements were performed at times identical to the pre-treatment study. Body temperature, blood pressure and blood gases were monitored throughout the 24 h experiment and maintained equivalent between groups (Table 2)."}, "reactive oxygen species": {"tested_on": "reactive oxygen species", "assay": "ROS production (DHR fluorescence)", "assay_type": "cell-based, mouse", "experimental": "The production of reactive oxygen species (ROS) was measured with DHR. In brief, DHR is oxidized to a fluorescent rhodamine-123 (Royall and Ischiropoulos, 1993), and the consequent rise in fluorescence may be used as an indicator of ROS production.\nROS were measured as previously described (Tymianski et al., 1998; Aarts et al., 2003). In brief, cultures were pre-loaded for 30 min with 5 μM DHR and subjected to the experimental insult. DHR fluorescence was measured in a multiwell plate fluorescence scanner (Cytofluor II, PerSeptive Biosytems, Framingham, Mass., USA; 485 nm excitation, 530 emission). DHR fluorescence was normalized to baseline using the formula at (Ft−Fo)/F0; Where Ft=DHR fluorescence at time t, Fo=DHR fluorescence at time zero. DHR fluorescence images were also acquired using a microscope (465-495 nm excitation and 515-555 nm emission) as described above for TMRM."}},
  "data": [
    {"substance": "Tat-KLSSIESDV [Tat-NR2B9c]", "values": [
      {"measurement": "suppression of NMDA-evoked increase in cGMP (average)", "setting": "nNOS", "result": "39.5±6.7", "unit": "%"},
      {"measurement": "reduction in cortical infarction", "setting": "[1]; 3 nMoles/g i.v. 45 min prior to MCAO, 24 h after MCAO onset", "result": "70.7±11.23", "unit": "%"},
      {"measurement": "reduction of volume of total cerebral infarction", "setting": "[1]; 3 nMoles/g i.v. 45 min prior to MCAO, 24 h after MCAO onset, vs controls", "result": "54.6±11.27", "unit": "%"},
      {"measurement": "24 h neurological scores", "setting": "[1]; 3 nMoles/g i.v. bolus 45 min prior to MCAO", "result": "trend toward improvement"},
      {"measurement": "Body Temperature", "setting": "[2]; After MCAo (15 min)", "result": "36.8 ± 0.12", "unit": "°C"},
      {"measurement": "Body Temperature", "setting": "[2]; After MCAo (24 hr)", "result": "36.5 ± 0.14", "unit": "°C"},
      {"measurement": "Body weight", "setting": "[2]; After MCAo (24 hr)", "result": "250 ± 5", "unit": "g"},
      {"measurement": "Body Temperature", "setting": "[2]; Before MCAo(15 min)", "result": "36.7 ± 0.20", "unit": "°C"},
      {"measurement": "MABP", "setting": "[2]; Before MCAo(15 min)", "result": "90 ± 6", "unit": "mmHg"},
      {"measurement": "Blood gases PCO2", "setting": "[2]; Before MCAo(30 min)", "result": "38.1 ± 1.4", "unit": "mmHg"},
      {"measurement": "Blood gases PH", "setting": "[2]; Before MCAo(30 min)", "result": "7.44 ± 0.02"},
      {"measurement": "Blood gases PO2", "setting": "[2]; Before MCAo(30 min)", "result": "123 ± 8", "unit": "mmHg"},
      {"measurement": "Body Temperature", "setting": "[2]; Before MCAo(30 min)", "result": "36.7 ± 0.19", "unit": "°C"},
      {"measurement": "MABP", "setting": "[2]; Before MCAo(30 min)", "result": "76 ± 5", "unit": "mmHg"},
      {"measurement": "Body Temperature", "setting": "[2]; Before MCAo(45 min)", "result": "36.6 ± 0.21", "unit": "°C"},
      {"measurement": "MABP", "setting": "[2]; Before MCAo(45 min)", "result": "120 ± 9", "unit": "mmHg"},
      {"measurement": "Body weight", "setting": "[2]; Before anesthesia", "result": "271 ± 5", "unit": "g"},
      {"measurement": "Blood gases PCO2", "setting": "[2]; During MCAo (5 min)", "result": "41.0 ± 1.3", "unit": "mmHg"},
      {"measurement": "Blood gases PH", "setting": "[2]; During MCAo (5 min)", "result": "7.44 ± 0.02"},
      {"measurement": "Blood gases PO2", "setting": "[2]; During MCAo (5 min)", "result": "112 ± 6", "unit": "mmHg"},
      {"measurement": "Body Temperature", "setting": "[2]; During MCAo (5 min)", "result": "36.7 ± 0.16", "unit": "°C"},
      {"measurement": "MABP", "setting": "[2]; During MCAo (5 min)", "result": "112 ± 9", "unit": "mmHg"},
      {"measurement": "Body Temperature", "setting": "[2]; During MCAo (15 min)", "result": "36.8 ± 0.23", "unit": "°C"},
      {"measurement": "MABP", "setting": "[2]; During MCAo (15 min)", "result": "98 ± 6", "unit": "mmHg"},
      {"measurement": "Body Temperature", "setting": "[3]; After MCAo (15 min)", "result": "36.8 ± 0.08", "unit": "°C"},
      {"measurement": "MABP", "setting": "[3]; After MCAo (15 min)", "result": "119 ± 4", "unit": "mmHg"},
      {"measurement": "Body Temperature", "setting": "[3]; After MCAo (24 hr)", "result": "36.4 ± 0.24", "unit": "°C"},
      {"measurement": "Body weight", "setting": "[3]; After MCAo (24 hr)", "result": "279 ± 8", "unit": "g"},
      {"measurement": "Blood gases PCO2", "setting": "[3]; Before MCAo(15 min)", "result": "40.1 ± 1.0", "unit": "mmHg"},
      {"measurement": "Blood gases PH", "setting": "[3]; Before MCAo(15 min)", "result": "7.43 ± 0.02"},
      {"measurement": "Blood gases PO2", "setting": "[3]; Before MCAo(15 min)", "result": "105 ± 4", "unit": "mmHg"},
      {"measurement": "Body Temperature", "setting": "[3]; Before MCAo(15 min)", "result": "36.6 ± 0.07", "unit": "°C"},
      {"measurement": "MABP", "setting": "[3]; Before MCAo(15 min)", "result": "103 ± 5", "unit": "mmHg"},
      {"measurement": "Body weight", "setting": "[3]; Before anesthesia", "result": "306 ± 7", "unit": "g"},
      {"measurement": "Blood gases PCO2", "setting": "[3]; During MCAo (15 min)", "result": "39.8 ± 0.9", "unit": "mmHg"},
      {"measurement": "Blood gases PH", "setting": "[3]; During MCAo (15 min)", "result": "7.43 ± 0.01"},
      {"measurement": "Blood gases PO2", "setting": "[3]; During MCAo (15 min)", "result": "111 ± 4", "unit": "mmHg"},
      {"measurement": "Body Temperature", "setting": "[3]; During MCAo (15 min)", "result": "37.0 ± 0.07", "unit": "°C"},
      {"measurement": "MABP", "setting": "[3]; During MCAo (15 min)", "result": "119 ± 8", "unit": "mmHg"},
      {"measurement": "Body Temperature", "setting": "[3]; During MCAo (60 min)", "result": "36.7 ± 0.11", "unit": "°C"},
      {"measurement": "MABP", "setting": "[3]; During MCAo (60 min)", "result": "143 ± 5", "unit": "mmHg"},
      {"measurement": "Body Temperature", "setting": "[3]; During MCAo (65 min)", "result": "36.9 ± 0.08", "unit": "°C"},
      {"measurement": "MABP", "setting": "[3]; During MCAo (65 min)", "result": "137 ± 4", "unit": "mmHg"},
      {"measurement": "ROS production by stretch alone", "setting": "reactive oxygen species; 50 nM pretreatment", "result": "has no effect"},
      {"measurement": "NMDA-evoked ROS production (DHR oxidation)", "setting": "reactive oxygen species; 50 nM pretreatment 30 min, stretched and unstretched cultures", "result": "reduced NMDA-evoked ROS production"}
    ]}
  ]
}
